Test results published in patent US9221853B2, “Glyphosate dimethylamine salt crystal, preparation method and use thereof” (ZHEJIANG WYNCA CHEMICAL INDUSTRY GROUP CO., LTD., priority 2009, dated 2015).
Counter-ions that a name gives are not always drawn.

What was measured:
[1] = test system: annual weeds: Common Crabgrass (Digitaria sanguinalis), Goosegrass (Eleusine indica), Bitter Fleabane (Erigeron acer); details: CD Observation Method visual score (2.0-10.0); 60 g/mou glyphosate, field spray; observed 2.5, 5, 7 and 11 days after application
From the text: (§1) A CD Observation Method was used to make records.
(§2) Assessment Criteria of the CD Observation Method
(§3) A visual method was used with the following criteria: • 2.0 mild poisoning symptom in a spot of leaves • 4.0 a few leaves lost green or turned yellow while the plant growth was substantially normal • 6.0 leaves lost green or turned yellow or some leaves withered, while the stalk was nearly normal, and was yet able to grow slowly • 8.0 caulicle or inflorescence and rachis of leaves withered; most of stalk turned yellow or lost green mildly and was unable to grow normally; the plant died locally • 10.0 the whole plant died

[2] = test system: perennial weeds: Alligator Alternanthera Herb (Alternanthera philoxeroides); details: CD Observation Method visual score (2.0-10.0); 60 g/mou glyphosate, field spray; observed 2.5, 5, 7 and 11 days after application
From the text: as §1, §2, §3

weeds = details: field plot 2 m×2.5 m, spray, effective ingredient 60 g/mou (based on glyphosate) diluted by water to 30 l/mou
Description: A sample was taken in an effective ingredient amount of 60 g/mou (based on glyphosate), and was diluted by water to 30 l/mou. The resulting diluted liquor was evenly sprayed into a test field plot with an area of 2 m×2.5 m, repeated twice. […] A CD Observation Method was used to make records.

With `O=C(O)CNCP(=O)(O)O` [dimethylamine salt of N-phosphonomethyl glycine] the “Control on annual weeds” value [1] was 9.6, the “Control on perennial weeds” value [2] was 9.4 and the “Days for weeds to die” value (weeds) was 9~11 d.
